Results published in patent publication US11306092B2, “Amino indole compounds useful as TLR inhibitors” (BRISTOL-MYERS SQUIBB COMPANY, priority 2017, dated 2022).

Columns and labels:
Format in all cases: cell-based
human TLR9 = biological target: T1, human TLR9 (Homo sapiens, UniProt Q9NR96); test: TLR9 inhibition reporter assay (HEK-Blue SEAP reporter); details: HEK-Blue cells overexpressing human TLR9; ODN2006 5 nM; 22 hour incubation
T1 construct: host or cells: HEK-Blue cells
T1 sequence (Q9NR96 26-1032): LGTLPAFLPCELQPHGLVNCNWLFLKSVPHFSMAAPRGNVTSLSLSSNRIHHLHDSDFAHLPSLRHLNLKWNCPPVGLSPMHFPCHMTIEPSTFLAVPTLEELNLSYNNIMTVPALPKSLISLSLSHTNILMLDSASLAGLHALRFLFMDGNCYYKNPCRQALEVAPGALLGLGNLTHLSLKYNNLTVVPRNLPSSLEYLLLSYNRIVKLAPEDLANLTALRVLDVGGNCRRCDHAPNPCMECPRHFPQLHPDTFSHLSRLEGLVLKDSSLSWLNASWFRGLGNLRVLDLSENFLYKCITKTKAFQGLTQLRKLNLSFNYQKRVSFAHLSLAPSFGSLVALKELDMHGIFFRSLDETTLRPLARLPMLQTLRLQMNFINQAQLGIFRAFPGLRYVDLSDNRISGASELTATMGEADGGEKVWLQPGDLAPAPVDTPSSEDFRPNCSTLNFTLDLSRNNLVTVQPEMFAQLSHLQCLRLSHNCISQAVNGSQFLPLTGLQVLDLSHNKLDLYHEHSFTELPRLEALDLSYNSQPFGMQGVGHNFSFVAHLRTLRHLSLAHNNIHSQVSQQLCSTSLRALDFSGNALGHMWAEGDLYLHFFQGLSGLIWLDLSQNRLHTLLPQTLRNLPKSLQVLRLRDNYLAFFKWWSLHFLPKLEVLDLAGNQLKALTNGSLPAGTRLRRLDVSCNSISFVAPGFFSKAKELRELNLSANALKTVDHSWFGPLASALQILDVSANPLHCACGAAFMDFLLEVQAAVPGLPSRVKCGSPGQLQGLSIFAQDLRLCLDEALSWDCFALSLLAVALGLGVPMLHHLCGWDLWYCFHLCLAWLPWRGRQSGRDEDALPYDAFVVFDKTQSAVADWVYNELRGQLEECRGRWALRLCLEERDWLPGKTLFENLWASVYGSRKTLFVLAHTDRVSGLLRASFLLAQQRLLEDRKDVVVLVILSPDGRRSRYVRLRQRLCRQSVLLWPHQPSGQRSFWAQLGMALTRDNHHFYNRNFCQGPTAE
Summary of the method: (§1)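 Compound treatment: 30 min, RT, 0.05 nM–50 μM final. Agonist: TLR7 gardiquimod 7.5 μM; TLR8 R848 15.9 μM; TLR9 ODN2006 5 nM. Incubation 22 h, 37 °C, 5% CO2. Readout SEAP, HEK-Blue Detection.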

human TLR7 = biological target: T2, human TLR7 (Homo sapiens, UniProt Q9NYK1); test: TLR7 inhibition reporter assay (HEK-Blue SEAP reporter); details: HEK-Blue cells overexpressing human TLR7; gardiquimod 7.5 μM; 22 hour incubation
T2 construct: host or cells: HEK-Blue cells
T2 sequence (Q9NYK1 27-1049): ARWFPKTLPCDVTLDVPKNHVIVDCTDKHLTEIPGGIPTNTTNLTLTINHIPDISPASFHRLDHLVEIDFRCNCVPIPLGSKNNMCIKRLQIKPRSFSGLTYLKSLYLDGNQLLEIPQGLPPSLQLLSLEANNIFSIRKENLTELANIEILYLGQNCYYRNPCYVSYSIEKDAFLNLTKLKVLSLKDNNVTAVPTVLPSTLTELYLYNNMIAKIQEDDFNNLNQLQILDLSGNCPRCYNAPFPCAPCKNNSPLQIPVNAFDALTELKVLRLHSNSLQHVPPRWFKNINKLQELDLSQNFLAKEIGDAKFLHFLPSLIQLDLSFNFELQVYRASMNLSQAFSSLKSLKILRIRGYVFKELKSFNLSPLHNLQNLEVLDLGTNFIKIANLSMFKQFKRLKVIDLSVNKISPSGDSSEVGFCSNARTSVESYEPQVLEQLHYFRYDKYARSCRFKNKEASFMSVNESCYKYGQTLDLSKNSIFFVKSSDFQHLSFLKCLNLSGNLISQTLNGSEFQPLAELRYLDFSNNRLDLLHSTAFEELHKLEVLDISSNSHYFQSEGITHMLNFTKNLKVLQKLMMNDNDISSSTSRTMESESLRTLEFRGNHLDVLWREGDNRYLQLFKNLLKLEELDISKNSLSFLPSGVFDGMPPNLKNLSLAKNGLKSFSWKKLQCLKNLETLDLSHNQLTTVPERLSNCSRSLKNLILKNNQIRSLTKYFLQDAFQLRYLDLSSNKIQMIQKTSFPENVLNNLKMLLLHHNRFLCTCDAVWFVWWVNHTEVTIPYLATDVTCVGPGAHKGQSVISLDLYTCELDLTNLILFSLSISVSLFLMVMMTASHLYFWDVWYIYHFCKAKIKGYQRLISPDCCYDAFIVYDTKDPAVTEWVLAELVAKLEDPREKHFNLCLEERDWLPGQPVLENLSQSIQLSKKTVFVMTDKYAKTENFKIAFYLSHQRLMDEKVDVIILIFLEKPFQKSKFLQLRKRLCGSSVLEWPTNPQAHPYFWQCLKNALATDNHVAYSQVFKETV
Summary of the method: as §1

human TLR8 = biological target: T3, human TLR8 (Homo sapiens, UniProt Q9NR97); test: TLR8 inhibition reporter assay (HEK-Blue SEAP reporter); details: HEK-Blue cells overexpressing human TLR8; R848 15.9 μM; 22 hour incubation
T3 construct: host or cells: HEK-Blue cells
T3 sequence (Q9NR97 27-1041): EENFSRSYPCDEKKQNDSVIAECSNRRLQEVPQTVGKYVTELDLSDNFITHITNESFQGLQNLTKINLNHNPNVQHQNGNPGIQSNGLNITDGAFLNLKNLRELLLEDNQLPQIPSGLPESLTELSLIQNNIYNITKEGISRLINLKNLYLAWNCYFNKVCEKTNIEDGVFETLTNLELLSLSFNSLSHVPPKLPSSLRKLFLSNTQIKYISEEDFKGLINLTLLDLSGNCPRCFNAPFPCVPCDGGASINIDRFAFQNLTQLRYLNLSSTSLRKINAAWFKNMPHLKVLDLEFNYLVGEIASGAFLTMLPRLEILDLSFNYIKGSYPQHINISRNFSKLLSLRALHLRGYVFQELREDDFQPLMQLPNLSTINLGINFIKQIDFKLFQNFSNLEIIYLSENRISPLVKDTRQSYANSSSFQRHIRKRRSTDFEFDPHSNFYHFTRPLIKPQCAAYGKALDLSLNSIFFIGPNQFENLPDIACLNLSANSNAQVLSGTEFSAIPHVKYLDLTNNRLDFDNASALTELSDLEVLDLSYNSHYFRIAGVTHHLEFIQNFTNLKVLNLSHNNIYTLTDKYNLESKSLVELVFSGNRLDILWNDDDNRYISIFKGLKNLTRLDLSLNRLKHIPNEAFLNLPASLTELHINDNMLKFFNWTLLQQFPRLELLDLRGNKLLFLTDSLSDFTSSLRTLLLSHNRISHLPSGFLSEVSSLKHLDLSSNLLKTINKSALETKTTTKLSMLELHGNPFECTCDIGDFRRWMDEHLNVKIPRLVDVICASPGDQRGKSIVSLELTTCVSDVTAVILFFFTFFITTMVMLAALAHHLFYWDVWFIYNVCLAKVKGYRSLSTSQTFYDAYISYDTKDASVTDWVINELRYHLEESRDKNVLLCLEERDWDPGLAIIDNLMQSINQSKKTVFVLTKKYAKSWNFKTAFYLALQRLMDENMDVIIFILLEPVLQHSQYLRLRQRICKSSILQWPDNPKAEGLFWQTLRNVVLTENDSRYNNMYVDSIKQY
Method: TLR7/8/9 Inhibition Reporter Assays
HEK-Blue™-cells (Invivogen) overexpressing human TLR7, TLR8 or TLR9 receptors were used for screening inhibitors of these receptors using an inducible SEAP (secreted embryonic alkaline phosphatase) reporter gene under the control of the IFN-β minimal promoter fused to five NF-κB and AP-1-binding sites. Briefly, cells are seeded into Greiner 384 well plates (15000 cells per well for TLR7, 20,000 for TLR8 and 25,000 for TLR9) and then treated with test compounds in DMSO to yield a final dose response concentration range of 0.05 nM-50 μM. After a 30 minute compound pre-treatment at room temperature, the cells are then stimulated with a TLR7 ligand (gardiquimod at a final concentration of 7.5 μM), TLR8 ligand (R848 at a final concentration of 15.9 μM) or TLR9 ligand (ODN2006 at a final concentration of 5 nM) to activate NF-κB and AP-1 which induce the production of SEAP. After a 22 hour incubation at 37° C., 5% CO2, SEAP levels are determined with the addition of HEK-Blue™ Detection reagent (Invivogen), a cell culture medium that allows for detection of SEAP, according to manufacturer's specifications. The percent inhibition is determined as the % reduction in the HEK-Blue signal present in wells treated with agonist plus DMSO alone compared to wells treated with a known inhibitor.

Row | Structure (SMILES) | IC50 (human TLR9) | IC50 (human TLR7) | IC50 (human TLR8)
1 | CCc1c(-c2ccnc(OC)c2)[nH]c2ccc(N3CCN(C4CCN(CC(C)C)CC4)CC3)cc12 [Example 160, 3-ethyl-5-(4-(1-isobutylpiperidin-4-yl)piperazin-1-yl)-2-(2-methoxypyridin-4-yl)-1H-indole] | 470 nM | 106 nM | 14 nM
2 | CCc1c(-c2cc(OC)nc(OC)c2)[nH]c2ccc(N3CCN(C4CCN(C(C)C)CC4)CC3)cc12 [Example 173, 2-(2,6-dimethoxypyridin-4-yl)-3-ethyl-5-(4-(1-isopropylpiperidin-4-yl)piperazin-1-yl)-1H-indole] | 673 nM | 59 nM | 9.8 nM
3 | COc1ccc(-c2[nH]c3ccc(NC4CCC(NC5CCN(C)CC5)CC4)cc3c2C(C)C)cc1OC (single isomer, unassigned) [Example 40, N1-(2-(3,4-dimethoxyphenyl)-3-isopropyl-1H-indol-5-yl)-N4-(1-methylpiperidin-4-yl)cyclohexane-1,4-diamine] | 570 nM | 43 nM | 171 nM
4 | CCc1c(-c2ccc(OC)c(OC)c2)[nH]c2ccc(N3CCN(C4CC(C)(C)NC(C)(C)C4)CC3)cc12 [Example 176, 2-(3,4-dimethoxyphenyl)-3-ethyl-5-(4-(2,2,6,6-tetramethylpiperidin-4-yl)piperazin-1-yl)-1H-indole] | 866 nM | 68 nM | 28 nM
5 | Cc1cc2[nH]c(-c3ccnc4[nH]ncc34)c(C(C)C)c2cc1N1CCNCC1 [Example 130, 4-(3-isopropyl-6-methyl-5-(piperazin-1-yl)-1H-indol-2-yl)-1H-pyrazolo[3,4-b]pyridine] | 1160 nM | 2 nM | 7.8 nM
6 | COc1ccc(-c2[nH]c3ccc(N4CCC(N(C)C)C4=O)cc3c2C(C)C)cc1OC (stereo not drawn) [Example 3, 1-(2-(3,4-dimethoxyphenyl)-3-isopropyl-1H-indol-5-yl)-3-(dimethylamino)pyrrolidin-2-one] | 10800 nM | 44 nM | 31 nM
7 | CCc1c(-c2ccnc3c2ccn3C)[nH]c2ccc(N3CCN(C4CCN(C(C)C)CC4)CC3)cc12 [Example 165, 4-(3-ethyl-5-(4-(1-isopropylpiperidin-4-yl)piperazin-1-yl)-1H-indol-2-yl)-1-methyl-H-pyrrolo[2,3-b] pyridine] | 685 nM | 5900 nM | 9400 nM
8 | CCc1c(-c2ccc(OC)c(OC)c2)[nH]c2ccc(N3CCC(C4CCNCC4)CC3)cc12 [Example 131, 5-([4,4′-bipiperidin]-1-yl)-2-(3,4-dimethoxyphenyl)-3-ethyl-1H-indole] | 648 nM | 187 nM | 132 nM
9 | COc1ccc(-c2[nH]c3ccc(N4CCC(C)(N5CCOCC5)CC4)cc3c2C(C)C)cc1OC [Example 117, 4-(1-(2-(3,4-dimethoxyphenyl)-3-isopropyl-H-indol-5-yl)-4-methylpiperidin-4-yl)morpholine] | 5050 nM | 188 nM | 5.3 nM
10 | COc1ccc(-c2[nH]c3ccc(N4CCN(C5CC(C)(C)NC(C)(C)C5)CC4)cc3c2C)cc1OC [Example 171, 2-(3,4-dimethoxyphenyl)-3-methyl-5-(4-(2,2,6,6-tetramethylpiperidin-4-yl)piperazin-1-yl)-1H-indole] | 379 nM | 8990 nM | 32200 nM
11 | COc1ccc(-c2[nH]c3ccc(NC(=O)CN)cc3c2C(C)C)cc1OC [Example 11, 2-amino-N-(2-(3,4-dimethoxyphenyl)-3-isopropyl-1H-indol-5-yl)acetamide] | 8600 nM | 290 nM | 17 nM
12 | CCN1CCCN(C2CCN(c3ccc4[nH]c(-c5ccc(OC)c(OC)c5)c(C(C)C)c4c3)CC2)CC1 [Example 84, 2-(3,4-dimethoxyphenyl)-5-(4-(4-ethyl-1,4-diazepan-1-yl)piperidin-1-yl)-3-isopropyl-1H-indole] | 999 nM | 16 nM | 4.7 nM
